Assays:
Leishmania donovani [1] = test: GSK_TCAKS: pIC50 Leishmania donovani viability assay using fluorescence intensity. Assay plates (1536-well) were prepared by adding 30nL per well of compound. For single shot assay, the final compound concentration was 5uM. […] Briefly, eGFP LdBOB axenic amastigotes were harvested, fixed and counted in a CASY cell counter (Roche-Applied Science). A final concentration of 1.5 * 10^5 cells per well were prepared in amastigote media containing 500 U/mL penicillin/streptomycin (Invitrogen) and 6uL was dispensed to each experimental well using a Multidrop Combi dispenser (Thermo Scientific). 6uL of assay media was dispensed to control columns used as reference for 100% compound response. Following incubation for 72 h at 37C, 5% CO2, 2 uL of resazurin was added to each well at a final concentration of 0.5 mM in phosphate buffered saline (PBS) with IGEPAL (Sigma-Aldrich), 0.05% (v/v).; type: functional, organism-based
Trypanosoma cruzi [2] = test: (§1) GSK_TCAKS: pIC50 Trypanosoma cruzi Imaging: Infected Cells. […] Cells were then washed once with PBS before infection. T. cruzi trypomastigotes, collected at days 5 to 8 after infection from LLC-MK2 parasite infected cultures, were allowed to swim out for 4h at 37C from a centrifuged pellet (2,500 rpm/10 min/room temperature). Trypomastigotes were then collected and counted in a CASY Cell Counter. Trypomastigotes, in supplemented DMEM, were added to H9c2 cultures in a multiplicity of infection of 1 and incubated for 18 h. Cells were washed once with PBS before incubation of the infected H9c2 monolayer with trypsin (Life-Technologies) to detach cells from the flask. Cells were counted in a CASY Cell Counter using a 150 um capillary and their density set at 5 * 10^4 cells per mL in supplemented assay DMEM. Infected H9c2 were dispensed into 384-well poly-lysine coated assay plates at 50uL per well using a Multidrop Combi dispenser. After seeding them, the plates were incubated at 37C, 5% CO2 for 72h. Cultures were then fixed and stained by addition of 50 uL of a solution containing 8% formaldehyde and 4 uM DRAQ5 DNA dye (BioStatus, UK) per well. […] Five images were collected per well for reliable statistical analysis. Automated image analysis was performed with a script developed on Acapella High Content Imaging and Analysis Software (PerkinElmer). Output: percentage of infected cells per well as a second infection marker.; type: functional, organism-based, Rattus norvegicus; conditions: H9c2, 4 h
[3] = test system: Trypanosoma brucei brucei; test: GSK_TCAKS: pIC50 Trypanosoma brucei viability assay using fluorescence intensity. Assay plates (1536-well) were prepared by dispensing 25nL of compound solution per well using an Echo acoustic dispenser (Labcyte).; type: functional, organism-based; conditions: Lister 427, 2 h
[4] = target: Sterol 14-alpha demethylase (Trypanosoma cruzi (strain CL Brener), UniProt Q7Z1V1); test: GSK_TCAKS: pIC50 CYP51 from Trypanosoma cruzi.; type: functional
Trypanosoma cruzi [5] = test: as §1, with “H2C9” for “Trypanosoma cruzi”, “H9c2 Host Cardiomyocytes.” for “Infected Cells.”, “Number” for “percentage”, “H9c2 Host Cardiomyocytes nuclei to determine drug-related cytotoxicity.” for “infected cells per well as a second infection marker.”; type: functional, organism-based, Rattus norvegicus; conditions: H9c2, 4 h
Trypanosoma cruzi [6] = test: GSK_TCAKS: pIC50 Trypanosoma cruzi Imaging: Amastigotes/Cell. […] Cells were then washed once with PBS before infection. T. cruzi trypomastigotes, collected at days 5 to 8 after infection from LLC-MK2 parasite infected cultures, were allowed to swim out for 4h at 37C from a centrifuged pellet (2,500 rpm/10 min/room temperature). Trypomastigotes were then collected and counted in a CASY Cell Counter. Trypomastigotes, in supplemented DMEM, were added to H9c2 cultures in a multiplicity of infection of 1 and incubated for 18 h. Cells were washed once with PBS before incubation of the infected H9c2 monolayer with trypsin (Life-Technologies) to detach cells from the flask. Cells were counted in a CASY Cell Counter using a 150 um capillary and their density set at 5 * 10^4 cells per mL in supplemented assay DMEM. Infected H9c2 were dispensed into 384-well poly-lysine coated assay plates at 50uL per well using a Multidrop Combi dispenser. After seeding them, the plates were incubated at 37C, 5% CO2 for 72h. Cultures were then fixed and stained by addition of 50 uL of a solution containing 8% formaldehyde and 4 uM DRAQ5 DNA dye (BioStatus, UK) per well. […] Five images were collected per well for reliable statistical analysis. Automated image analysis was performed with a script developed on Acapella High Content Imaging and Analysis Software (PerkinElmer). Output: number of amastigotes per cell as infection level measurement.; type: functional, organism-based, Rattus norvegicus; conditions: H9c2, 4 h
Leishmania donovani [7] = test: GSK_TCAKS: pIC50 Leishmania donovani Imaging: Amastigotes/Macrophages. Assay plates (384-well) were prepared by adding 250nL of compound to each well. For single shot assay, the final compound concentration was 5 uM. […] Automated image analysis was performed with a script developed on Acapella High Content Imaging and Analysis Software (PerkinElmer). Output: Average number of amastigotes per macrophage cell were reported for each well.; type: functional, organism-based, Homo sapiens; conditions: THP-1
Leishmania donovani [8] = test: GSK_TCAKS: pIC50 Leishmania donovani Imaging: Infected Macrophages. Assay plates (384-well) were prepared by adding 250nL of compound to each well. For single shot assay, the final compound concentration was 5 uM. […] Automated image analysis was performed with a script developed on Acapella High Content Imaging and Analysis Software (PerkinElmer). Output: Percent of infected macrophage cells were reported for each well.; type: functional, organism-based, Homo sapiens; conditions: THP-1
[9] = test system: Trypanosoma brucei brucei; test: GSK_TCAKS: pIC50 Trypanosoma brucei viability assay using luminiscence. Assay plates (1536-well) were prepared. T. brucei cultures were harvested and counted in a CASY cell counter. A parasite suspension was prepared at a final concentration of 5 * 10^4 cells/mL in complete HMI9 medium and 6uL was dispensed to all wells containing compounds using a Multidrop Combi dispenser. 6uL of HMI9 media with 0.4% DMSO were dispensed to control columns. Plates were incubated for 24 h at 37C, 5% CO2 then tempered for 10 min at room temperature. ATP content was quantified by adding 4 uL of CellTiter-Glo Reagent (Promega) according to the manufacturer's instructions. Luminescence was measured using a ViewLux.; type: functional, organism-based; conditions: Lister 427, CASY
Trypanosoma cruzi [10] = test: GSK_TCAKS: pIC50 Trypanosoma cruzi viability assay using beta-GAL activity. This assay was run at single shot at 5uM compound concentration per well. The biological reagents consisted of NIH-3T3 host cells and trypomastigotes parasitic cells; both cell types were set to a 3.3 * 10^5 cells/mL dilution in assay DMEM by means of a CASY cell counter device using a 60um capillary. 6 uL of the mixture were dispensed per well (about 1 * 10^3 host-cells and 1 * 10^3 parasites) with a Multidrop Combi dispenser. […] In all wells, the percentage of DMSO never exceeded 0.5%. Plates incubated for four days at 37C, 5% CO2. The substrate used for the assay fluorescence intensity (FLINT) readout was resorufin-beta-D-galactopiranoside (Sigma-Aldrich) at 5uM per well. It was diluted in PBS supplemented with the soft detergent Igepal (Fluka).; type: functional, organism-based, Mus musculus; conditions: Tulahuen, NIH3T3
Leishmania donovani [11] = test: GSK_TCAKS: pIC50 Leishmania donovani Imaging: THP-1 Host Macrophages. Assay plates (384-well) were prepared by adding 250nL of compound to each well. For single shot assay, the final compound concentration was 5 uM. […] Automated image analysis was performed with a script developed on Acapella High Content Imaging and Analysis Software (PerkinElmer). Output: THP-1 cell count were reported for each well.; type: functional, organism-based, Homo sapiens
[12] = GSK_TCAKS: pIC50 HepG2 human cell line viability assay using luminiscence. […] Seeding density was checked to ensure that new mono-layers were not more than 50% confluent at the time of harvesting. Cell suspension was added to 500 mL of the same medium at a final density of 1.2 * 10^5 cells/mL. This cell suspension was dispensed (25 uL, 3000 cells per well) into 384-well clear-bottom plates using a Multidrop Combi dispenser. Prior to addition of the cell suspension, the screening compounds (250 nL) were pre-dispensed into the plates with an Echo liquid handler. Plates were incubated for 48 h at 37C, 5% CO2. After incubation, plates equilibrated at room temperature for 30 min before proceeding to develop the luminescent signal. The signal developer, CellTiter-Glo Reagent, was allowed to equilibrate at room temperature for 30 min and added to the plates (25uL per well) using a Multidrop Combi dispenser. Plates were left for 10 min at room temperature for stabilization and then read using a ViewLux.; type: toxicity, cell-based

Chain of Sterol 14-alpha demethylase (Q7Z1V1 whole entry): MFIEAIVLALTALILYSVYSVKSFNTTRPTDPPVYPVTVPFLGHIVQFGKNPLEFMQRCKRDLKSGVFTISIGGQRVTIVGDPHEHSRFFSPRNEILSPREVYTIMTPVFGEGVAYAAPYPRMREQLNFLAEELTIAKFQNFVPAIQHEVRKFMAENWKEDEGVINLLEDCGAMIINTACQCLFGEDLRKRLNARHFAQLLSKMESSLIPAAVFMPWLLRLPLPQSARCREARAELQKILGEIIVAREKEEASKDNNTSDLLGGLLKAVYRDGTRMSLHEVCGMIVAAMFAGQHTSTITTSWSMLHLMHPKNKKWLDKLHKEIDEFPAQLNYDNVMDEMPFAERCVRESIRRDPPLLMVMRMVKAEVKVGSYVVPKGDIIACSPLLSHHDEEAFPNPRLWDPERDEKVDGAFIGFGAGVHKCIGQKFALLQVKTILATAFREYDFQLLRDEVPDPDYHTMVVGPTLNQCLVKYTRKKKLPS

SMILES	IC50 (Leishmania donovani [1]) [µM]	IC50 (Trypanosoma cruzi [2]) [µM]	IC50 [3] [µM]	IC50 [4] [µM]	IC50 (Trypanosoma cruzi [5]) [µM]	IC50 (Trypanosoma cruzi [6]) [µM]	IC50 (Leishmania donovani [7]) [µM]	IC50 (Leishmania donovani [8]) [µM]	IC50 [9] [µM]	IC50 (Trypanosoma cruzi [10]) [µM]	IC50 (Leishmania donovani [11]) [µM]	IC50 at 48 h [12] [µM]
O=C(NCCc1csc(-c2ccc(F)cc2)n1)c1cccs1	> 50.1	0.398	0.251	25.1	> 50.1	0.251	20	> 50.1	0.2	0.398	> 50.1	> 100
O=C(Nc1ccccc1)Nc1nc(-c2ccccn2)cs1	1.58	1	1	31.6	1	0.631	0.251	0.398	1	0.631	6.31	25.1
O=C(Nc1nc2ccccc2[nH]1)c1c(O)c2cccc3c2n(c1=O)CC3	2.51	15.8	15.8	> 100	10	25.1	1	2	20	20	> 50.1	10
N#Cc1ccc(C(=O)Nc2cccc(-c3cccc(CN4CCC(O)CC4)c3)c2)cc1	> 50.1	7.94	0.794	25.1	31.6	7.94	7.94	15.8	0.794	5.01	15.8	39.8
O=C(Nc1nc(-c2ccccn2)cs1)N1C[C@H]2C[C@@]2(c2ccccc2)C1	2	0.501	0.501	39.8	0.794	0.251	0.398	0.501	0.631	0.501	7.94	25.1
CN(C)S(=O)(=O)c1cccc(C(=O)Nc2nc(-c3ccccn3)cs2)c1	1.26	1.58	0.501	31.6	7.94	1	2.51	6.31	0.631	1.26	7.94	> 100
O=C(CCCNC(=O)c1ccc(Cl)cc1)Nc1nc(-c2ccccn2)cs1	> 50.1	25.1	7.94	3.16	25.1	10	3.16	5.01	12.6	6.31	> 50.1	> 100
CCCNC(=O)Nc1cccc(-c2nc3ncccc3o2)c1	3.16	3.98	0.501	> 100	25.1	3.16	15.8	12.6	1	2.82	20	> 100
CN(C)c1ccc(N)cc1CN(CC1CCCO1)S(C)(=O)=O (configuration not stated)	3.98	> 50.1	> 39.8	> 100	> 50.1	> 50.1	10	12.6	> 39.8	> 50.1	> 50.1	> 100
COc1ccc(C2CC(c3ccccc3Cl)=NN2C(=O)CNC(=O)C2CCCC2)cc1 (configuration not stated)	> 50.1	3.16	0.631	63.1	> 50.1	2	> 50.1	> 50.1	0.794	3.55	> 50.1	> 100
Cc1nc2c(-c3cccs3)c(C)nn2c(NCCO)c1C	> 50.1	31.6	0.126	> 100	> 50.1	15.8	> 50.1	> 50.1	0.2	39.8	> 50.1	> 100

From ChEMBL document CHEMBL3430912, “GSK Tres Cantos Anti-Kinetoplastid Screening (TCAKS) Data”
